According to patent US11058619B2, “Carboxylated polyphenol derivatives and their cosmetic use” (L'ORÉAL, priority 2016, dated 2021):
Values joined by “and” are separate entries in the source; they are usually repeats but may differ in a detail not shown here. Identical values can stand only once.

Key:
HAS3 marker = test: Gene marker expression (HAS3) in human epidermal keratinocytes by RT-qPCR; type: cell-based
Description: Human epidermal keratinocytes were seeded in 48 well-culture plate and cultured for 48 hours at 37° C. and 5% of CO2 in culture medium with renewal of culture medium after the first 24 hours. At the end of incubation, culture medium was replaced by assay medium containing or not (control) raw material and cells were incubated for additional 24 hours. All experimental conditions were performed in n=3. At the end of treatment, cells were washed twice in PBS (w/o CaCl2, w/o MgCl2) and RNA extraction was performed using MagMAX™-96 Total RNA Isolation Kit (Ambion cat n° AM8130) according to manufacturer recommendation. RNA quantification and quality control were performed using Labchip GX (Perkin Elmer). Relative expression of selected markers was measured by two steps RT-qPCR. In a first step, a reverse transcription was performed using the Quantitect® Reverse transcription kit (QIAGEN) and according to manufacturer recommendation. Then, PCR experiments were performed using a LightCycler® 480 Real-Time PCR System measuring SYBR®Green incorporation (Roche).

normal human melanocytes = test: Depigmenting activity: melanin produced by normal human melanocytes in vitro; type: cell-based
Description: The measurement of the depigmenting activity (reduction in the production of melanin) of compounds of formula (I) was performed by assaying the melanin produced by normal human melanocytes in vitro as follows.
First of all, normal human melanocytes are cultured and dispensed into 384 wells. After 24 hours, the culture medium was replaced with a medium containing compounds of formula (I) to be evaluated. The cells were incubated for 72 hours before measurement of the final optical density, which measures the amount of melanin produced by the melanocytes. A […] is performed using a wide concentration range of the compounds evaluated. Thus, by making the concentrations and the measurements of melanin correspond, it is possible to determine an IC50 in μM: concentration at which 50% decrease in melanin synthesis is achieved.

Compound: O=C(O)c1c(O)cc(/C=C/c2ccc(O)cc2)cc1O [Compound W]
- Relative expression (UA) of HAS3 (HAS3 marker; 30 μM, 24 hours, human epidermal keratinocytes, individual replicates (n=3)): 3.44E−03 UA and 3.32E−03 UA and 3.61E−03 UA
- Fold change Mean of HAS3 expression vs control (HAS3 marker; 30 μM, 24 hours, mean of n=3): 2.45
- Fold change (Nb) of HAS3 expression (HAS3 marker; 30 μM, 24 hours, vs control, individual replicates (n=3)): 2.432 Nb and 2.35 Nb and 2.553 Nb
- cytotoxicity (HAS3 marker; human epidermal keratinocytes, at 30 μM): without cytotoxicity
- IC50 (normal human melanocytes; Melanocyte, normal human melanocytes, 72 hours incubation, optical density, read-out: IC50, inhibiting effect on the production of melanin): 25 µM
- Mean percentage Depigmentation (normal human melanocytes; concentration 0.000003125 (unit not given)): 15.6%
- Mean percentage Depigmentation (normal human melanocytes; concentration 0.00000625 (unit not given)): 22.8%
- Mean percentage Depigmentation (normal human melanocytes; concentration 0.0000125 (unit not given)): 32.8%
- Mean percentage Depigmentation (normal human melanocytes; concentration 0.000025 (unit not given)): 43.0%
- Mean percentage Depigmentation (normal human melanocytes; concentration 0.00005 (unit not given)): 76.7%
- Mean percentage Depigmentation (normal human melanocytes; concentration 0.0001 (unit not given)): 99.7%
- Mean percentage Depigmentation (normal human melanocytes; concentration 0.0002 (unit not given)): 125.6%
- Mean percentage Depigmentation (normal human melanocytes; concentration 1.5625*10^−6 (unit not given)): 9.7%
- Mean percentage Depigmentation (normal human melanocytes; concentration 3.90625*10^−7 (unit not given)): −0.9%
- Mean percentage Depigmentation (normal human melanocytes; concentration 7.8125*10^−7 (unit not given)): 5.5%
- depigmenting effect (normal human melanocytes; normal human melanocytes): showed a depigmenting effect
- cytotoxicity (normal human melanocytes; normal human melanocytes, in the concentration range tested): without cytotoxicity
